Assay results taken from US20230181536A1, “ANTICANCER COMBINATION THERAPY WITH N-(1-ACRYLOYL-AZETIDIN-3-YL)-2-((1H-INDAZOL-3-YL)AMINO)METHYL)-1H-IMIDAZOLE-5-CARBOXAMIDE INHIBITOR OF KRAS-G12C” (TAIHO PHARMACEUTICAL CO., LTD., priority 2020, published 2023).

molecular target: T1, KRAS G12C (Homo sapiens, UniProt P01116, G12C); experiment: Inhibitory activity on the KRAS G12C nucleotide (GDP-GTP) exchange reaction; assay type: biochemical; details: Bodipy FL GDP-bound KRAS G12C 25 nM; preincubation at 25° C. for 4 hours; SOS1 100 nM, GppNHp 1 μM, reaction for 30 minutes
T1 construct: KRAS G12C (amino acid region: 1-169)
T1 sequence (P01116 1-169 isoform P01116-2 G12C): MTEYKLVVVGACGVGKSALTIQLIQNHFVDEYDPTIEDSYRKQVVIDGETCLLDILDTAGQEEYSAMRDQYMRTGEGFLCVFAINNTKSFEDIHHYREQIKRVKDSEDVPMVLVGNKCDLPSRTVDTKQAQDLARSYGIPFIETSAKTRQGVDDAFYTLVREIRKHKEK
Experimental: Test Example 2: Evaluation of Inhibitory Activity of Compounds on the KRAS G12C Nucleotide (GDP-GTP) Exchange Reaction
The inhibitory activity of compounds on the exchange reaction of GDP into GppNHp in Bodipy (trademark) FL-bound KRAS G12C was examined by fluorescence measurement using human recombinant KRAS G12C and SOS1 proteins.
For the preparation of KRAS G12C to which Bodipy FL GDP was bound, first, 50 µM KRAS G12C (amino acid region: 1-169) and 1 mM Bodipy FL GDP (Invitrogen, G22360) were incubated for 1 hour in a buffer (20 mM Tris-HCl (pH 7.5), 50 mM NaCl, 1 mM DTT) in ice in the presence of 2.5 mM EDTA. Thereafter, MgCl2 with a final concentration of 10 mM was added, and the mixture was incubated at room temperature for 30 minutes. The protein was allowed to pass through a NAP-5 column to remove free nucleotides and was used for compound evaluation.
For the measurement of the inhibitory activity of compounds on nucleotide exchange reaction, first, the compound of the disclosure was diluted stepwise with dimethyl sulfoxide (DMSO). Subsequently, a solution of the gradually diluted compound of the disclosure in DMSO (the final concentration of DMSO: 5%) and KRAS G12C (25 nM) bound to Bodipy FL GDP were added to a reaction buffer (20 mM Tris-HCl (pH 7.5), 100 mM NaCl, 1 mM MgCl2, 2 mM DTT, 0.1% Tween20), followed by preincubation at 25° C. for 4 hours. Thereafter, Son of Sevenless Homolog 1 (SOS1, amino acid region: 564-1049) and GppNHp (GMPPNP, Jena Bioscience GmbH, NU-401-50) were added such that their final concentration was 100 nM and 1 μM respectively, followed by reaction for 30 minutes. The change in fluorescence intensity of Bodipy FL (excitation wavelength: 485 nm, fluorescence wavelength: 520 nm) immediately after the start of reaction and after 30 minutes from the start of reaction was standardized. The signal value for only DMSO was determined to be 0% inhibition, and the signal value for no addition of GppNHp was determined to be 100% inhibition. The compound concentration at which 50% inhibition is achieved was determined to be the IC50 (nM) and was calculated.

| IC50 [nM] | SMILES |
| --- | --- |
| 5 | C=CC(=O)N1CC(NC(=O)c2c(Cl)nc(CNc3n[nH]c4cc(Cl)c(C(C)(C)C)cc34)n2[C@@H]2CCOC2)C1 [Example 102, (R)-N-(1-acryloylazetidin-3-yl)-2-(((5-(tert-butyl)-6-chloro-1H-indazol-3-yl)amino)methyl)-4-chloro-1-(tetrahydrofuran-3-yl)-1H-imidazole-5-carboxamide] |
| 25 | C=CC(=O)N1CC(NC(=O)c2c(C)nc(CNc3n[nH]c4cc(Cl)c(C(C)(C)C)cc34)n2CCN(C)C)C1 [Example 16, N-(1-acryloylazetidin-3-yl)-2-(((5-(tert-butyl)-6-chloro-1H-indazol-3-yl)amino)methyl)-1-(2-(dimethylamino)ethyl)-4-methyl-JH-imidazole-5-carboxamide] |
| 13 | C=CC(=O)N1CC(NC(=O)c2c(C(F)F)nc(CNc3n[nH]c4cc(Cl)c(C(C)(C)C)cc34)n2C(C)C)C1 [Example 33, N-(1-acryloylazetidin-3-yl)-2-(((5-(tert-butyl)-6-chloro-1H-indazol-3-yl)amino)methyl)-4-(difluoromethyl)-1-isopropyl-1H-imidazole-5-carboxamide] |
| 8 | C=CC(=O)N1CC(NC(=O)c2c(Cl)nc(CNc3n[nH]c4cc(Cl)c(C(C)(C)C)cc34)n2C2CN(C(=O)OC(C)(C)C)C2)C1 [Example 106, Tert-butyl 3-(5-((1-acryloylazetidin-3-yl)carbamoyl)-2-(((5-(tert-butyl)-6-chloro-1H-indazol-3-yl)amino)methyl)-4-chloro-1H-imidazol-1-yl)azetidine-1-carboxylate] |
| 9 | C=CC(=O)N1CC(NC(=O)c2c(C)nc(CNc3n[nH]c4cc(Cl)c(C(C)(C)C)cc34)n2CCC)C1 [Example 19, N-(1-acryloylazetidin-3-yl)-2-(((5-(tert-butyl)-6-chloro-1H-indazol-3-yl)amino)methyl)-4-methyl-1-propyl-1H-imidazole-5-carboxamide] |
| 69 | C=CC(=O)N1CC(NC(=O)c2c(I)nc(CNc3n[nH]c4cc(Cl)c(C(C)(C)C)cc34)n2C)C1 [Example 26, N-(1-acryloylazetidin-3-yl)-2-(((5-(tert-butyl)-6-chloro-1H-indazol-3-yl)amino)methyl)-4-iodo-1-methyl-1H-imidazole-5-carboxamide] |
| 13 | C=CC(=O)N1C[C@H](NC(=O)c2c(Cl)nc(CNc3n[nH]c4cc(Cl)c(C(C)(C)C)cc34)n2C)[C@@H](F)C1 [Example 76, N-((3S,4S)-1-acryloyl-4-fluoropyrrolidin-3-yl)-2-(((5-(tert-butyl)-6-chloro-1H-indazol-3-yl)amino)methyl)-4-chloro-1-methyl-1H-imidazole-5-carboxamide] |
| 58 | C=CS(=O)(=O)N1CC(NC(=O)c2c(C)nc(CNc3n[nH]c4cc(Cl)c(C(C)(C)C)cc34)n2C(C)C)C1 [Example 86, 2-(((5-(tert-butyl)-6-chloro-1H-indazol-3-yl)amino)methyl)-1-isopropyl-4-methyl-N-(1-(vinylsulfonyl)azetidin-3-yl)-1H-imidazole-5-carboxamide] |
| 2630 | C/C=C/C(=O)N1CC(NC(=O)c2c(C)nc(CNc3n[nH]c4cc(Cl)c(C(C)(C)C)cc34)n2C(C)C)C1 [Example 81, (E)-N-(1-(but-2-enoyl)azetidin-3-yl)-2-(((5-(tert-butyl)-6-chloro-1H-indazol-3-yl)amino)methyl)-1-isopropyl-4-methyl-1H-imidazole-5-carboxamide] |
| 6 | C=CC(=O)N1CC(NC(=O)c2c(Cl)nc(CNc3n[nH]c4cc(Cl)c(C(C)(C)C)cc34)n2C)C1 [Example 29, N-(1-acryloylazetidin-3-yl)-2-(((5-(tert-butyl)-6-chloro-1H-indazol-3-yl)amino)methyl)-4-chloro-1-methyl-1H-imidazole-5-carboxamide] |
| 7 | C=CC(=O)N1CC(NC(=O)c2c(Cl)nc(CNc3n[nH]c4cc(Cl)c(C(C)(C)C)cc34)n2[C@@H]2CCN(C(C)C)C2)C1 [Example 114, (R)-N-(1-acryloylazetidin-3-yl)-2-(((5-(tert-butyl)-6-chloro-1H-indazol-3-yl)amino)methyl)-4-chloro-1-(1-isopropylpyrrolidin-3-yl)-1H-imidazole-5-carboxamide] |
| 58 | C=CC(=O)N1CC(NC(=O)c2c(C)nc(CNc3n[nH]c4cc(Cl)c(C(C)(C)C)cc34)n2C(F)F)C1 [Example 21, N-(1-acryloylazetidin-3-yl)-2-(((5-(tert-butyl)-6-chloro-1H-indazol-3-yl)amino)methyl)-1-(difluoromethyl)-4-methyl-1H-imidazole-5-carboxamide] |
| 13 | C=CC(=O)N1CC(NC(=O)c2c(Cl)nc(CNc3n[nH]c4cc(Cl)c(C(C)(C)C)cc34)n2[C@@H]2CCN(CC(F)F)[C@H]2C)C1 [Example 125, N-(1-acryloylazetidin-3-yl)-2-(((5-(tert-butyl)-6-chloro-1H-indazol-3-yl)amino)methyl)-4-chloro-1-((2S,3R)-1-(2,2-difluoroethyl)-2-methylpyrrolidin-3-yl)-1H-imidazole-5-carboxamide] |
| 1730 | C=CC(=O)N1CCC(NC(=O)c2c(C)nc(CNc3n[nH]c4cc(Cl)c(C(C)(C)C)cc34)n2C)CC1 [Example 47, N-(1-acryloylpiperidin-4-yl)-2-(((5-(tert-butyl)-6-chloro-1H-indazol-3-yl)amino)methyl)-1,4-dimethyl-1H-imidazole-5-carboxamide] |
| 27 | C=CC(=O)N1CC(NC(=O)c2cnc(CNc3n[nH]c4cc(Cl)c(C(C)(C)C)nc34)n2C)C1 [Example 40, N-(1-acryloylazetidin-3-yl)-2-(((5-(tert-butyl)-6-chloro-1H-pyrazolo[4,3-b]pyridin-3-yl)amino)methyl)-1-methyl-1H-imidazole-5-carboxamide] |
| 9 | C=CC(=O)N1CC(NC(=O)c2c(Cl)nc(CNc3n[nH]c4cc(Cl)c(C(C)(C)C)cc34)n2C2CCCOC2)C1 (stereo not shown) [Example 104, N-(1-acryloylazetidin-3-yl)-2-(((5-(tert-butyl)-6-chloro-1H-indazol-3-yl)amino)methyl)-4-chloro-1-(tetrahydro-2H-pyran-3-yl)-1H-imidazole-5-carboxamide] |
| 84 | C=CC(=O)N1C[C@H](NC(=O)c2c(C)nc(CNc3n[nH]c4cc(Cl)c(C(C)(C)C)cc34)n2C)[C@@H](OC)C1 [Example 63, N-((3S,4S)-1-acryloyl-4-methoxypyrrolidin-3-yl)-2-(((5-(tert-butyl)-6-chloro-1H-indazol-3-yl)amino)methyl)-1,4-dimethyl-1H-imidazole-5-carboxamide] |
| 96 | C=CC(=O)N1C[C@H](NC(=O)c2c(C)nc(CNc3n[nH]c4cc(Cl)c(C(C)(C)C)cc34)n2C)[C@@H](O)C1 [Example 62, N-((3S,4S)-1-acryloyl-4-hydroxypyrrolidin-3-yl)-2-(((5-(tert-butyl)-6-chloro-1H-indazol-3-yl)amino)methyl)-1,4-dimethyl-1H-imidazole-5-carboxamide] |
| 28 | C=CC(=O)N1C[C@@H](CO)[C@@H](NC(=O)c2c(C)nc(CNc3n[nH]c4cc(Cl)c(C(C)(C)C)cc34)n2C)C1 [Example 58, N-((3R,4R)-1-acryloyl-4-(hydroxymethyl)pyrrolidin-3-yl)-2-(((5-(tert-butyl)-6-chloro-1H-indazol-3-yl)amino)methyl)-1,4-dimethyl-1H-imidazole-5-carboxamide] |
| 92 | C=CC(=O)NC1CN(C(=O)c2c(C)nc(CNc3n[nH]c4cc(Cl)c(C(C)(C)C)cc34)n2C)C1 [Example 46, N-(1-(2-(((5-(tert-butyl)-6-chloro-1H-indazol-3-yl)amino)methyl)-1,4-dimethyl-1H-imidazole-5-carbonyl)azetidin-3-yl) acrylamide] |
| 2170 | C=CC(=O)N1CC(NC(=O)c2cnc(CNc3n[nH]c4cc(Cl)c(C=C)cc34)n2C)C1 [Example 38, N-(1-acryloylazetidin-3-yl)-2-(((6-chloro-5-vinyl 1H-indazol-3-yl)amino)methyl)-1-methyl-1H-imidazole-5-carboxamide] |
| 6 | C=CC(=O)N1CC(NC(=O)c2c(Cl)nc(CNc3n[nH]c4cc(Cl)c(C(C)(C)C)cc34)n2[C@@H]2CCN(c3ccccn3)C2)C1 [Example 124, (R)-N-(1-acryloylazetidin-3-yl)-2-(((5-(tert-butyl)-6-chloro-1H-indazol-3-yl)amino)methyl)-4-chloro-1-(1-(pyridin-2-yl)pyrrolidin-3-yl)-1H-imidazole-5-carboxamide] |
